According to ChEMBL document CHEMBL3044615, “Synthesis and in vitro antimicrobial activity of benzo[b][1,4]thiazin-3(4H)-ones via smiles rearrangement” (2011):
Converted amounts (≈) assume the structure as drawn. The source made the active and inactive calls. The rule behind the calls is not given here.

Experiments:
Assay type in all cases: functional
[1] = system: Pseudomonas aeruginosa; assay: Antibacterial activity against Pseudomonas aeruginosa ATCC 27853 after 24 hr by two-fold microdilution technique; settings: ATCC 27853, 24 h
[2] = system: Escherichia coli; assay: Antibacterial activity against Escherichia coli ATCC 25922 after 24 hr by two-fold microdilution technique; settings: ATCC 25922, 24 h
[3] = system: Proteus vulgaris; assay: Antibacterial activity against Proteus vulgaris ATCC 6896 after 24 hr by two-fold microdilution technique; settings: ATCC 6896, 24 h
[4] = system: Saccharomyces cerevisiae; assay: Microbiostatic activity against Saccharomyces cerevisiae ATCC 74212 after 48 hr by two fold microdilution technique
[5] = system: Micrococcus luteus; assay: Antibacterial activity against Micrococcus luteus NCTC 2665 after 24 hr by two-fold microdilution technique; settings: NCTC 2665, 24 h
[6] = system: Candida albicans; assay: Microbiostatic activity against Candida albicans ATCC 76615 after 48 hr by two-fold microdilution technique
[7] = system: Bacillus subtilis; assay: Antibacterial activity against Bacillus subtilis ATCC 6633 after 24 hr by two fold microdilution technique; settings: ATCC 6633, 24 h
[8] = system: Staphylococcus aureus; assay: Antibacterial activity against Staphylococcus aureus ATCC 25923 after 24 hr by two fold microdilution technique; settings: ATCC 25923, 24 h

| Structure (SMILES) | MIC [1] [µg/mL] | MIC [2] [µg/mL] | MIC [3] [µg/mL] | MIC ([4]; ATCC 74212, 48 h) [µg/mL] | MIC [5] [µg/mL] | MIC ([6]; ATCC 76615, 48 h) [µg/mL] | MIC [7] [µg/mL] | MIC [8] [µg/mL] | MIC [4] | MIC [6] |
| --- | --- | --- | --- | --- | --- | --- | --- | --- | --- | --- |
| CCCCCCN1C(=O)CSc2c(Cl)cccc21 | 32 (≈ 113 µM) | 32 (≈ 113 µM) | 16 (≈ 56.4 µM) | 64 (≈ 225 µM) | 32 (≈ 113 µM) | 64 (≈ 225 µM) | 16 (≈ 56.4 µM) | 32 (≈ 113 µM) |  |  |
| CCCCCCN1C(=O)CSc2cc(Cl)ccc21 | 64 (≈ 225 µM) | 32 (≈ 113 µM) | 64 (≈ 225 µM) | 256 (≈ 902 µM) | 64 (≈ 225 µM) | 128 (≈ 451 µM) | 32 (≈ 113 µM) | 32 (≈ 113 µM) |  |  |
| O=C1CSc2c(Cl)cccc2N1CC1CCCO1 (stereo not given) | 128 (≈ 451 µM) | 64 (≈ 226 µM) | 64 (≈ 226 µM) | 128 (≈ 451 µM) | 32 (≈ 113 µM) | 128 (≈ 451 µM) | 16 (≈ 56.4 µM) | 32 (≈ 113 µM) |  |  |
| O=C1CSc2cc(Cl)ccc2N1C1CCCCC1 | 32 (≈ 114 µM) | 32 (≈ 114 µM) | 32 (≈ 114 µM) | 128 (≈ 454 µM) | 16 (≈ 56.8 µM) | 64 (≈ 227 µM) | 32 (≈ 114 µM) | 16 (≈ 56.8 µM) |  |  |
| O=C1CSc2cccc(Cl)c2N1C1CCCCC1 | 32 (≈ 114 µM) | 32 (≈ 114 µM) | 32 (≈ 114 µM) | 128 (≈ 454 µM) | 16 (≈ 56.8 µM) | 64 (≈ 227 µM) | 32 (≈ 114 µM) | 16 (≈ 56.8 µM) |  |  |
| CC1(C)S[C@@H]2[C@H](NC(=O)[C@H](N)c3ccccc3)C(=O)N2[C@H]1C(=O)O [AMPICILLIN] | 128 (≈ 366 µM) | 16 (≈ 45.8 µM) | 16 (≈ 45.8 µM) |  | 16 (≈ 45.8 µM) |  | 1 (≈ 2.86 µM) | 2 (≈ 5.72 µM) | inactive | inactive |
| O=C1CSc2ccc(Cl)cc2N1Cc1ccccc1 | 32 (≈ 110 µM) | 32 (≈ 110 µM) | 32 (≈ 110 µM) | 64 (≈ 221 µM) | 16 (≈ 55.2 µM) | 64 (≈ 221 µM) | 32 (≈ 110 µM) | 16 (≈ 55.2 µM) |  |  |
| O=C1CSc2cccc(Cl)c2N1Cc1ccccc1 | 32 (≈ 110 µM) | 16 (≈ 55.2 µM) | 64 (≈ 221 µM) | 128 (≈ 442 µM) | 32 (≈ 110 µM) |  | 32 (≈ 110 µM) | 32 (≈ 110 µM) |  | inactive |
| CC(C)(O/N=C(\C(=O)N[C@@H]1C(=O)N2C(C(=O)[O-])=C(C[n+]3ccccc3)CS[C@H]12)c1csc(N)n1)C(=O)O [CEFTAZIDIME] | 128 (≈ 234 µM) | 4 (≈ 7.32 µM) | 4 (≈ 7.32 µM) |  | 16 (≈ 29.3 µM) |  | 2 (≈ 3.66 µM) | 4 (≈ 7.32 µM) | inactive | inactive |
| O=C1CSc2cc(Cl)ccc2N1Cc1ccccc1 | 64 (≈ 221 µM) | 32 (≈ 110 µM) | 32 (≈ 110 µM) |  | 16 (≈ 55.2 µM) |  | 64 (≈ 221 µM) | 64 (≈ 221 µM) | inactive | inactive |
| O=C1CSc2ccc(Cl)cc2N1C1CCCCC1 | 128 (≈ 454 µM) | 64 (≈ 227 µM) | 64 (≈ 227 µM) |  | 32 (≈ 114 µM) | 256 (≈ 908 µM) | 64 (≈ 227 µM) | 32 (≈ 114 µM) | inactive |  |
| Clc1ccccc1C(c1ccccc1)(c1ccccc1)n1ccnc1 [CLOTRIMAZOLE] | 512 (≈ 1480 µM) | 512 (≈ 1480 µM) | 512 (≈ 1480 µM) | 4 (≈ 11.6 µM) | 512 (≈ 1480 µM) | 2 (≈ 5.8 µM) | 512 (≈ 1480 µM) | 512 (≈ 1480 µM) |  |  |
| CCCCCCN1C(=O)CSc2ccc(Cl)cc21 | 64 (≈ 225 µM) | 32 (≈ 113 µM) | 32 (≈ 113 µM) |  | 16 (≈ 56.4 µM) |  | 32 (≈ 113 µM) | 32 (≈ 113 µM) | inactive | inactive |
| CN[C@@H]1[C@H](O[C@H]2[C@H](O[C@H]3[C@H](O)[C@@H](O)[C@H](N=C(N)N)[C@@H](O)[C@@H]3N=C(N)N)O[C@@H](C)[C@]2(O)C=O)O[C@@H](CO)[C@H](O)[C@H]1O [STREPTOMYCIN] | 2 (≈ 3.44 µM) | 4 (≈ 6.88 µM) | 4 (≈ 6.88 µM) |  | 8 (≈ 13.8 µM) |  | 32 (≈ 55 µM) | 2 (≈ 3.44 µM) | inactive | inactive |
| O=C1CSc2cc(Cl)ccc2N1CC1CCCO1 (stereo not given) | 64 (≈ 226 µM) | 32 (≈ 113 µM) | 32 (≈ 113 µM) | 128 (≈ 451 µM) | 16 (≈ 56.4 µM) | 128 (≈ 451 µM) | 64 (≈ 226 µM) | 32 (≈ 113 µM) |  |  |
| O=C1CSc2c(Cl)cccc2N1C1CCCCC1 | 64 (≈ 227 µM) | 32 (≈ 114 µM) | 32 (≈ 114 µM) | 64 (≈ 227 µM) | 32 (≈ 114 µM) | 128 (≈ 454 µM) | 32 (≈ 114 µM) | 16 (≈ 56.8 µM) |  |  |
| O=C1CSc2cccc(Cl)c2N1CC1CCCO1 (stereo not given) | 64 (≈ 226 µM) | 32 (≈ 113 µM) | 32 (≈ 113 µM) | 128 (≈ 451 µM) | 32 (≈ 113 µM) | 64 (≈ 226 µM) | 32 (≈ 113 µM) | 32 (≈ 113 µM) |  |  |
| O=C1CSc2ccc(Cl)cc2N1CC1CCCO1 (stereo not given) | 128 (≈ 451 µM) | 64 (≈ 226 µM) | 64 (≈ 226 µM) | 128 (≈ 451 µM) | 32 (≈ 113 µM) | 64 (≈ 226 µM) | 32 (≈ 113 µM) | 64 (≈ 226 µM) |  |  |
| O=C1CSc2c(Cl)cccc2N1Cc1ccccc1 | 32 (≈ 110 µM) | 64 (≈ 221 µM) | 64 (≈ 221 µM) | 64 (≈ 221 µM) | 32 (≈ 110 µM) | 128 (≈ 442 µM) | 64 (≈ 221 µM) | 64 (≈ 221 µM) |  |  |
| CCCCCCN1C(=O)CSc2cccc(Cl)c21 | 64 (≈ 225 µM) | 32 (≈ 113 µM) | 32 (≈ 113 µM) |  | 32 (≈ 113 µM) |  | 32 (≈ 113 µM) | 32 (≈ 113 µM) | inactive | inactive |
